This note sets out measurements from patent US20050249818A1, “Polycationic antimicrobial therapeutic” (priority 2004, published 2005).

The data set has as its system C. albicans #5. Format: in vivo. How it is done: Five-week-old female CD-1 mice were purchased from Charles River Laboratories. Mice were placed in cages in groups of five. To immunosuppress the mice and allow for the establishment of mucosal infection, 5-FU was given intravenously once every 7 days, starting on day-2. Antibiotics were given in the drinking water in autoclaved bottles to reduce potential confounding secondary bacterial infections. Gentamycin at 0.2 mg/ml, clindamycin at 1 mg/ml, vancomycin 1 mg/ml were added to sterile drinking water. Bottles and drinking water were changed every day. Imipenem is given at 5 mg/mouse (IP, QD). Antibiotics were begun on day-3.
C. albicans #5 was transferred from storage at −80° C. and streaked for isolation on Sabouraud Dextrose Agar plates with chloramphenicol. The plates were incubated at 35° C. for 48 hours. The organisms were inoculated in sterile bottles each containing 100 ml of SAAMF broth and incubated for 48 hours at 35° C. on a gyratory shaker. C. albicans was harvested by transferring the broth culture to sterile 50 ml centrifuge tubes and centrifuged for 15 minutes at 2000 RPM. The cells were washed once with saline and then suspended in saline. The cells were counted using a hemacytometer. Inoculum dilutions were made in sterile water. The final inoculum was 2×10^8 cells/ml of drinking sterile water plus antibiotics. The inoculum viability determined by plating serial dilutions on SDA plates with chloramphenicol was 1.85×10^8 cells per ml. Plates were incubated overnight at 35° C. for verification count of the inoculum.
In the morning before the preparation of the inoculum the drinking bottles were removed 8 hours prior to replacement with the inoculum suspension of C. albicans. The mice were allowed to drink from this suspension for 24 hours at which time the inoculum suspension was removed and replaced with drinking water containing antibiotics (day 0).
Beginning on day 4 postinfection, mice were untreated or treated with either, Surfacine D™ diluent (undiluted), 3% Surfacine D, PEG dilutent or 1% clotrimazole.
PEG 400, 1% clotrimazole in PEG400, or given no treatment. Treatments were done for 10 consecutive days and were given twice daily. Treatments were done by dipping a sterile calcium alginate swab into the solution and then swabbing the oral cavity of the mouse to ensure coverage with the solution. It was not necessary to anesthetize the animals to perform the treatments. Treatment ended on day 13 postinfection.
On day 15 postinfection all surviving mice were euthanatized using CO2 gas. The tongue of each mouse was swabbed with sterile calcium alginate swab and the swab placed in 0.4 ml of 1×PBS. The swab in PBS was vigorously mixed with a vortex mixer to dissolve the alginate and release the organisms into suspension, and two 10-fold dilutions were made and plated in duplicate on SDA without chloramphenicol.
Survival was analyzed using a log rank test and comparative CFU between groups was analyzed using a Mann-Whitney U test. A log10 value of 6.5 was assigned as CFU for data points missing due to the death of the animal. This value is arbitrarily set to be higher than any burden recovered from surviving mice and assures that death is considered as a worse outcome than is survival regardless of burden.

Consider `Clc1ccccc1C(c1ccccc1)(c1ccccc1)n1ccnc1` [1% clotrimazole, clotrimazole], for which the “reduction in CFU in comparison with the untreated controls” value (CFU recovered from the tongue, day 15 postinfection) is ~30 fold. Also, the “ranking among the treatments” value (in vivo) is “most effective of the treatments”. The “behavioral observations during treatments” value (in vivo, po) was “did not exhibit these behaviors or symptoms”. Besides, the deaths result (mice, oral swab twice daily for 10 days, to day 15 postinfection) is on record as “one”. Further, the “gross pathological appearance of the tongue mucosal surface at necropsy” value (surviving mice, day 15 postinfection) was “normal mucosal surface appearance”.
